From US6780995B2, “Activated iododerivatives for the treatment of cancer and aids” (Isotechnika Inc., priority 1997, dated 2004)

Test system: A549 cells
Test: IC50 assay, inhibition of cell proliferation and growth, A549
Format: cell-based, human
Conditions: Homo sapiens; A549 bronchogenic cell line; neutral red or crystal violet; read-out: IC50 Concentrations, A 549
Procedure: (§1) Cell culture: The human cell lines were propagated under sterile conditions in RPMI 1640 (CellGrow) with 10% fetal bovine serum (Hyclone), 2 mM L-glutamine, and sodium bicarbonate (complete medium) and incubated at 37° C. in HEPA-filtered Sterilcult CO2 tissue culture incubators (Forma) with 5% CO^2 and 95% humidity (Table 1). The murine leukemia cell lines were propagated in Dulbecco's MEM media with 10% equine serum (Hyclone), 2 mM L-glutamine, and sodium bicarbonate (complete medium) and incubated as described. The cells were subcultured twice weekly and used in experiments. The culture was screened for mycoplasma contamination using GeneProbe™ (Fisher) and positive cultures were cured of contaminants over three passages using constant treatment with BM-Cyclin™ antibiotic combination (Boehringer Mannheim). Only cultures confirmed as mycoplasma free were used in testing compounds for anticellular activity.
(§2) The test compounds were stored at 4° C. under light protected conditions. The test compounds were weighed and dissolved in DMSO. The dissolved compounds were then serially diluted in warm medium (RPMI 1640 or Dulbecco's MEM) under constant mixing to minimize precipitation. The positive control drug doxorubicin was diluted in water followed by dilution in media to achieve a final concentration of 200 nM.
(§3) For all experiments, the cells were harvested and centrifuged to remove the media, and suspended in fresh completed medium. Samples were taken to determine cell density. The cell count was determined with a Coulter Model Z1 cell counter and viability was measured with propidium iodide staining followed by analysis on a Coulter EPPICS Elite Flow cytometer. The cell samples sere adjusted with complete medium to a density of 5×10^4/mL for adherent cell lines and 1×10^5/mL for suspension lines. Tissue culture cluster plates (96 well, cat. No. 3595 Costar for adherent human lines and cat No. 25850 Corning for murine leukemias) were seeded with 100 μL cells and incubated as described. Replicate groups of plates were set up for each line to accommodate the exposure options for single agents and combinations. For each dilution 8 wells (100 μL samples of cells) were treated with 100 μL of dosing solution one day after plating. Each cluster plate contained a cell control (8 wells, mock-treated with complete medium), a medium control (3 wells with medium used to subtract out signal generated by media conditions), and an air blank (1 well, for calibrating the plate reader).
(§4) Anticellular effects of the compounds for the adherent cell lines were assessed with neutral red dye. On the day of analysis, the media was removed from sample cell monolayers and replaced with 0.1 mL of neutral red solution (0.5% neutral red, HBSS:RPMI 1640 (1:1), 0.05 M HEPES, pH 7.2). After incubation of the samples at 37° C. for 1 hour the excess dye was removed with blotting and the monolayers were washed twice with 0.85% NaCl solution (0.1 mL per wash). The cell associated dye was extracted by adding 0.2 mL of a 0.1 M NaH2PO4:ethanol (1:1) solution/well followed by incubation for 1 hour at 35° C. The absorbency of neutral red in each monolayer was measured at 550 nm (620 nm reference beam) on a Denley Anthos 2001 microplate reader. The data were transferred via the ARCOM software capture program in Lotus 1-2-3 for processing.
(§5) In assays where technical difficulties due to crystalization of the neutral red occurred the crystal violet staining procedure was employed to measure the amount of cells were left on the plate. Crystal violet staining solution [0.5% crystal violet (w/v), 50% methanol (v/v), 45% saline (v/v), and 5% formalin (v/v)] were prepared on the day of staining. After the media was removed from the sample wells, two drops of crystal violet stain were added to each well and the samples were incubated at ambient temperature for 10 minutes. […]

SMILES	IC50 [µM]
O=C(Nc1ccc2ccc(=O)oc2c1)c1cc([N+](=O)[O-])ccc1I [Ref. No. 4, 7-(2′-Iodo-5′-Nitro-Benzamido)-2H-1-Benzopyran-2-one]	> 500
O=C(Nc1nccs1)c1cc([N+](=O)[O-])ccc1I [Ref. No. 5, 2-(2′-Iodo-5′-Nitro-Benzamido)-Thiazole]	48.6
C=CCNC(=O)c1cc([N+](=O)[O-])ccc1I [Ref. No. 7, N-(Allyl)-2-Iodo-5-Nitro-Benzamide]	134
C#CCNC(=O)c1cc([N+](=O)[O-])ccc1I [Ref. No. 8, N-(Propargyl) 2-Iodo-5-Nitro-Benzamide]	46.6
C=C(C)c1ccccc1NC(=O)c1cc([N+](=O)[O-])ccc1I [Ref. No. 9, N-(2′-Iodo-5′-Nitro-Benzoyl) 2-Isopropenyl Aniline]	> 500
NC(=O)c1cc(N)ccc1I [Ref. No. 13]	> 500
NC(=O)c1cc([N+](=O)[O-])ccc1I [Ref. No. 15, 2-Iodo-5-Nitro-Benzamide]	37.4

Test system: not given
Test: not given
Conditions: not given

SMILES	melting point [°C]
O=C(Nc1ccc2ccc(=O)oc2c1)c1cc([N+](=O)[O-])ccc1I [Ref. No. 4, 7-(2′-Iodo-5′-Nitro-Benzamido)-2H-1-Benzopyran-2-one]	273 to 277
O=C(Nc1nccs1)c1cc([N+](=O)[O-])ccc1I [Ref. No. 5, 2-(2′-Iodo-5′-Nitro-Benzamido)-Thiazole]	210 to 213
C=CCNC(=O)c1cc([N+](=O)[O-])ccc1I [Ref. No. 7, N-(Allyl)-2-Iodo-5-Nitro-Benzamide]	155 to 158
C#CCNC(=O)c1cc([N+](=O)[O-])ccc1I [Ref. No. 8, N-(Propargyl) 2-Iodo-5-Nitro-Benzamide]	204 to 206
C=C(C)c1ccccc1NC(=O)c1cc([N+](=O)[O-])ccc1I [Ref. No. 9, N-(2′-Iodo-5′-Nitro-Benzoyl) 2-Isopropenyl Aniline]	155 to 158
NC(=O)c1cc([N+](=O)[O-])ccc1I [Ref. No. 15, 2-Iodo-5-Nitro-Benzamide]	260 to 264

Test system: SK-OV-3 cells
Test: IC50 assay, inhibition of cell proliferation and growth, SK-OV-3
Format: cell-based, human
Conditions: Homo sapiens; SK-OV-3 ovarian adenocarcinoma cell line; neutral red or crystal violet; read-out: IC50 Concentrations, SK-OV-3
Procedure: as §1, §2, §3, §4, §5

SMILES	IC50 [µM]
O=C(Nc1ccc2ccc(=O)oc2c1)c1cc([N+](=O)[O-])ccc1I [Ref. No. 4, 7-(2′-Iodo-5′-Nitro-Benzamido)-2H-1-Benzopyran-2-one]	395
O=C(Nc1nccs1)c1cc([N+](=O)[O-])ccc1I [Ref. No. 5, 2-(2′-Iodo-5′-Nitro-Benzamido)-Thiazole]	32.8
C=CCNC(=O)c1cc([N+](=O)[O-])ccc1I [Ref. No. 7, N-(Allyl)-2-Iodo-5-Nitro-Benzamide]	46.4
C#CCNC(=O)c1cc([N+](=O)[O-])ccc1I [Ref. No. 8, N-(Propargyl) 2-Iodo-5-Nitro-Benzamide]	43.4
C=C(C)c1ccccc1NC(=O)c1cc([N+](=O)[O-])ccc1I [Ref. No. 9, N-(2′-Iodo-5′-Nitro-Benzoyl) 2-Isopropenyl Aniline]	> 500
NC(=O)c1cc(N)ccc1I [Ref. No. 13]	> 500
NC(=O)c1cc([N+](=O)[O-])ccc1I [Ref. No. 15, 2-Iodo-5-Nitro-Benzamide]	141

Test system: COLO 205 cells
Test: IC50 assay, inhibition of cell proliferation and growth, COLO 205
Format: cell-based, human
Conditions: Homo sapiens; COLO 205 colon adenocarcinoma cell line; neutral red or crystal violet; read-out: IC50 Concentrations, COLO 205
Procedure: as §1, §2, §3, §4, §5

SMILES	IC50 [µM]
O=C(Nc1ccc2ccc(=O)oc2c1)c1cc([N+](=O)[O-])ccc1I [Ref. No. 4, 7-(2′-Iodo-5′-Nitro-Benzamido)-2H-1-Benzopyran-2-one]	> 500
O=C(Nc1nccs1)c1cc([N+](=O)[O-])ccc1I [Ref. No. 5, 2-(2′-Iodo-5′-Nitro-Benzamido)-Thiazole]	13.4
C=CCNC(=O)c1cc([N+](=O)[O-])ccc1I [Ref. No. 7, N-(Allyl)-2-Iodo-5-Nitro-Benzamide]	38.5
C#CCNC(=O)c1cc([N+](=O)[O-])ccc1I [Ref. No. 8, N-(Propargyl) 2-Iodo-5-Nitro-Benzamide]	30.6
NC(=O)c1cc(N)ccc1I [Ref. No. 13]	> 500
NC(=O)c1cc([N+](=O)[O-])ccc1I [Ref. No. 15, 2-Iodo-5-Nitro-Benzamide]	33.2

Test system: SK-MEL-5 cells
Test: IC50 assay, inhibition of cell proliferation and growth, SK-MEL-5
Format: cell-based, human
Conditions: Homo sapiens; SK-MEL-5 melanoma cell line; neutral red or crystal violet; read-out: IC50 Concentrations, SK MEL-5
Procedure: as §1, §2, §3, §4, §5

SMILES	IC50 [µM]
O=C(Nc1ccc2ccc(=O)oc2c1)c1cc([N+](=O)[O-])ccc1I [Ref. No. 4, 7-(2′-Iodo-5′-Nitro-Benzamido)-2H-1-Benzopyran-2-one]	> 500
O=C(Nc1nccs1)c1cc([N+](=O)[O-])ccc1I [Ref. No. 5, 2-(2′-Iodo-5′-Nitro-Benzamido)-Thiazole]	46.2
C=CCNC(=O)c1cc([N+](=O)[O-])ccc1I [Ref. No. 7, N-(Allyl)-2-Iodo-5-Nitro-Benzamide]	124
C#CCNC(=O)c1cc([N+](=O)[O-])ccc1I [Ref. No. 8, N-(Propargyl) 2-Iodo-5-Nitro-Benzamide]	90.4
C=C(C)c1ccccc1NC(=O)c1cc([N+](=O)[O-])ccc1I [Ref. No. 9, N-(2′-Iodo-5′-Nitro-Benzoyl) 2-Isopropenyl Aniline]	> 500
NC(=O)c1cc(N)ccc1I [Ref. No. 13]	> 500
NC(=O)c1cc([N+](=O)[O-])ccc1I [Ref. No. 15, 2-Iodo-5-Nitro-Benzamide]	314

Test system: B16 cells
Test: IC50 assay, inhibition of cell proliferation and growth, B16
Format: cell-based
Conditions: Mus musculus; B16 murine melanoma cell line; neutral red or crystal violet; read-out: IC50 Concentrations, B16
Procedure: as §1, §2, §3, §4, §5

SMILES	IC50 [µM]
O=C(Nc1ccc2ccc(=O)oc2c1)c1cc([N+](=O)[O-])ccc1I [Ref. No. 4, 7-(2′-Iodo-5′-Nitro-Benzamido)-2H-1-Benzopyran-2-one]	15.9
O=C(Nc1nccs1)c1cc([N+](=O)[O-])ccc1I [Ref. No. 5, 2-(2′-Iodo-5′-Nitro-Benzamido)-Thiazole]	30.8
C=CCNC(=O)c1cc([N+](=O)[O-])ccc1I [Ref. No. 7, N-(Allyl)-2-Iodo-5-Nitro-Benzamide]	45.1
C#CCNC(=O)c1cc([N+](=O)[O-])ccc1I [Ref. No. 8, N-(Propargyl) 2-Iodo-5-Nitro-Benzamide]	50
C=C(C)c1ccccc1NC(=O)c1cc([N+](=O)[O-])ccc1I [Ref. No. 9, N-(2′-Iodo-5′-Nitro-Benzoyl) 2-Isopropenyl Aniline]	462
NC(=O)c1cc(N)ccc1I [Ref. No. 13]	500
NC(=O)c1cc([N+](=O)[O-])ccc1I [Ref. No. 15, 2-Iodo-5-Nitro-Benzamide]	134

Test system: MCF7 cells
Test: IC50 assay, inhibition of cell proliferation and growth, MCF7
Format: cell-based, human
Conditions: Homo sapiens; MCF7 breast adenocarcinoma cell line; neutral red or crystal violet; read-out: IC50 Concentrations, MCF 7
Procedure: as §1, §2, §3, §4, §5

SMILES	IC50 [µM]
O=C(Nc1ccc2ccc(=O)oc2c1)c1cc([N+](=O)[O-])ccc1I [Ref. No. 4, 7-(2′-Iodo-5′-Nitro-Benzamido)-2H-1-Benzopyran-2-one]	> 500
O=C(Nc1nccs1)c1cc([N+](=O)[O-])ccc1I [Ref. No. 5, 2-(2′-Iodo-5′-Nitro-Benzamido)-Thiazole]	27
C#CCNC(=O)c1cc([N+](=O)[O-])ccc1I [Ref. No. 8, N-(Propargyl) 2-Iodo-5-Nitro-Benzamide]	47.7
C=C(C)c1ccccc1NC(=O)c1cc([N+](=O)[O-])ccc1I [Ref. No. 9, N-(2′-Iodo-5′-Nitro-Benzoyl) 2-Isopropenyl Aniline]	100
NC(=O)c1cc(N)ccc1I [Ref. No. 13]	> 500

Test system: M14 cells
Test: IC50 assay, inhibition of cell proliferation and growth, M14
Format: cell-based, human
Conditions: Homo sapiens; M14 melanoma cell line; neutral red or crystal violet; read-out: IC50 Concentrations, M14
Procedure: as §1, §2, §3, §4, §5

SMILES	IC50 [µM]
O=C(Nc1ccc2ccc(=O)oc2c1)c1cc([N+](=O)[O-])ccc1I [Ref. No. 4, 7-(2′-Iodo-5′-Nitro-Benzamido)-2H-1-Benzopyran-2-one]	> 500
O=C(Nc1nccs1)c1cc([N+](=O)[O-])ccc1I [Ref. No. 5, 2-(2′-Iodo-5′-Nitro-Benzamido)-Thiazole]	17.4
C=CCNC(=O)c1cc([N+](=O)[O-])ccc1I [Ref. No. 7, N-(Allyl)-2-Iodo-5-Nitro-Benzamide]	41.8
C#CCNC(=O)c1cc([N+](=O)[O-])ccc1I [Ref. No. 8, N-(Propargyl) 2-Iodo-5-Nitro-Benzamide]	49
C=C(C)c1ccccc1NC(=O)c1cc([N+](=O)[O-])ccc1I [Ref. No. 9, N-(2′-Iodo-5′-Nitro-Benzoyl) 2-Isopropenyl Aniline]	> 500
NC(=O)c1cc(N)ccc1I [Ref. No. 13]	> 500
NC(=O)c1cc([N+](=O)[O-])ccc1I [Ref. No. 15, 2-Iodo-5-Nitro-Benzamide]	36.1

Test system: P388 cells
Test: IC50 assay (XTT), inhibition of cell proliferation and growth, P388
Format: cell-based
Conditions: Mus musculus; P388 murine leukemia cell line; XTT dye conversion; read-out: IC50 Concentrations, P388
Procedure: as §1, §2, §3
Anticellular effects of the murine leukemia cell lines were assessed with the XTT dye conversion assay which is more suited to suspension cultures. On the day of analysis XTT[2,3-bis(2-methoxy-4-nitro-5-sulfophenyl)-5-[(phenylamino)carbenyl]-2H-tetrazolium hydroxide, inner salt, sodium salt (Sigma)] was weighed out and dissolved at 1 mg/mL in media. PMS (phenazine methosulfate) was prepared at 5 mM in PBS (phosphate buffered saline) and stored as a stock solution 4° C. The PMS was mixed with dissolved XTT to a final concentration of 0.025 mM. Sample wells were treated with 50 μL of the XTT solution and the plates were incubated for four hours at 37° C. to allow for conversion into the liquid soluble formazan product. After the incubation period the reaction was stopped by adding 10 μL of 10% SDS solution per well and the wells contents of each plate were mixed by agitation. The absorbancy of formazan in each monolayer was measured at 450 nm (620 nm reference beam) on a Denley Anthos 2001 microplate reader. The data were transferred via the ARCOM software capture program into Lotus 1-2-3 for processing.
Using the procedures described above, concentrations of the Example compounds necessary to inhibit cell proliferation and growth by 50% (1C50 values) were determined in the test cell lines.

SMILES	IC50 [µM]
C=CCNC(=O)c1cc([N+](=O)[O-])ccc1I [Ref. No. 7, N-(Allyl)-2-Iodo-5-Nitro-Benzamide]	39.4
C#CCNC(=O)c1cc([N+](=O)[O-])ccc1I [Ref. No. 8, N-(Propargyl) 2-Iodo-5-Nitro-Benzamide]	25.8
NC(=O)c1cc(N)ccc1I [Ref. No. 13]	439
